Source: patent US11420973B2, “Amide substituted indole compounds useful as TLR inhibitors” (BRISTOL-MYERS SQUIBB COMPANY, priority 2017, dated 2022)
Where two headings read alike, the source gives them in different places.

Legend:
human TLR7 = human TLR7 (Homo sapiens (Human), UniProt Q9NYK1); assay: TLR7 inhibition reporter assay (HEK-Blue SEAP reporter, gardiquimod stimulation); type: cell-based; conditions: HEK-Blue cells overexpressing human TLR7, gardiquimod 7.5 μM
human TLR9 = human TLR9 (Homo sapiens (Human), UniProt Q9NR96); assay: TLR9 inhibition reporter assay (HEK-Blue SEAP reporter, ODN2006 stimulation);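 also: SEAP reporter under IFN-β minimal promoter with five NF-κB and AP-1 sites, 22 h incubation, compounds 0.05 nM–50 µM, inhibition relative to agonist plus DMSO versus known inhibitor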
human TLR8 = human TLR8 (Homo sapiens (Human), UniProt Q9NR97); assay: TLR8 inhibition reporter assay (HEK-Blue SEAP reporter, R848 stimulation);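 also: SEAP driven by IFN-β minimal promoter with NF-κB and AP-1 sites, 22 h incubation, compounds 0.05 nM–50 µM, inhibition scaled between agonist plus DMSO and reference inhibitor wells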
[1] = read-out: TLR9 IC50, HEK-Blue cells overexpressing human TLR9, ODN2006 5 nM, SEAP reporter
[2] = read-out: TLR8 IC50, HEK-Blue cells overexpressing human TLR8, R848 15.9 μM, SEAP reporter

human TLR9, sequence (Q9NR96 26-1032): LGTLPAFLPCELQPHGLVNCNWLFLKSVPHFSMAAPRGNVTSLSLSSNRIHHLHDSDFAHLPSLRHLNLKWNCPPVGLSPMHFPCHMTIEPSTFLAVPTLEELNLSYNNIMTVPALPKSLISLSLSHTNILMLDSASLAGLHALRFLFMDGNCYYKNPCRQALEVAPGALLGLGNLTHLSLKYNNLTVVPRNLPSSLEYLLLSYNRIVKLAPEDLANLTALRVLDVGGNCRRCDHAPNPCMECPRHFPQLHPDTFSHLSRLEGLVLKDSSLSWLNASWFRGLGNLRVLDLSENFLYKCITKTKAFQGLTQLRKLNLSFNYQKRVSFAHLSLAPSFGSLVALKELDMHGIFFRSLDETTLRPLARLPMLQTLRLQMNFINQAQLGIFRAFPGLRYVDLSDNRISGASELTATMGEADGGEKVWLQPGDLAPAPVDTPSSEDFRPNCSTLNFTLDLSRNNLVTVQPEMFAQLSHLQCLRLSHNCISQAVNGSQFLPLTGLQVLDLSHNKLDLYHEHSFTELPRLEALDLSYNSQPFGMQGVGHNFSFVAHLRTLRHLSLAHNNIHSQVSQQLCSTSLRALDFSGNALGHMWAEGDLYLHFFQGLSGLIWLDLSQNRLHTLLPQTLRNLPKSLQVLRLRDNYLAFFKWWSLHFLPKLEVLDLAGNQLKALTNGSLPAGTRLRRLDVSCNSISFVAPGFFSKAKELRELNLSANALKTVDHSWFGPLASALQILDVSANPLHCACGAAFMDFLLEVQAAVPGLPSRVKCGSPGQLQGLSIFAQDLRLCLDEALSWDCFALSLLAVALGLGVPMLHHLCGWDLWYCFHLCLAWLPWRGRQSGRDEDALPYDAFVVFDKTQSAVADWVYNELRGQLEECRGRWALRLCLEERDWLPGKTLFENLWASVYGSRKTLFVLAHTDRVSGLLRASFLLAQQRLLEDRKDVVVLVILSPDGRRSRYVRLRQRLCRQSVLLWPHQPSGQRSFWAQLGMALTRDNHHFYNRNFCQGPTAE
human TLR7, sequence (Q9NYK1 27-1049): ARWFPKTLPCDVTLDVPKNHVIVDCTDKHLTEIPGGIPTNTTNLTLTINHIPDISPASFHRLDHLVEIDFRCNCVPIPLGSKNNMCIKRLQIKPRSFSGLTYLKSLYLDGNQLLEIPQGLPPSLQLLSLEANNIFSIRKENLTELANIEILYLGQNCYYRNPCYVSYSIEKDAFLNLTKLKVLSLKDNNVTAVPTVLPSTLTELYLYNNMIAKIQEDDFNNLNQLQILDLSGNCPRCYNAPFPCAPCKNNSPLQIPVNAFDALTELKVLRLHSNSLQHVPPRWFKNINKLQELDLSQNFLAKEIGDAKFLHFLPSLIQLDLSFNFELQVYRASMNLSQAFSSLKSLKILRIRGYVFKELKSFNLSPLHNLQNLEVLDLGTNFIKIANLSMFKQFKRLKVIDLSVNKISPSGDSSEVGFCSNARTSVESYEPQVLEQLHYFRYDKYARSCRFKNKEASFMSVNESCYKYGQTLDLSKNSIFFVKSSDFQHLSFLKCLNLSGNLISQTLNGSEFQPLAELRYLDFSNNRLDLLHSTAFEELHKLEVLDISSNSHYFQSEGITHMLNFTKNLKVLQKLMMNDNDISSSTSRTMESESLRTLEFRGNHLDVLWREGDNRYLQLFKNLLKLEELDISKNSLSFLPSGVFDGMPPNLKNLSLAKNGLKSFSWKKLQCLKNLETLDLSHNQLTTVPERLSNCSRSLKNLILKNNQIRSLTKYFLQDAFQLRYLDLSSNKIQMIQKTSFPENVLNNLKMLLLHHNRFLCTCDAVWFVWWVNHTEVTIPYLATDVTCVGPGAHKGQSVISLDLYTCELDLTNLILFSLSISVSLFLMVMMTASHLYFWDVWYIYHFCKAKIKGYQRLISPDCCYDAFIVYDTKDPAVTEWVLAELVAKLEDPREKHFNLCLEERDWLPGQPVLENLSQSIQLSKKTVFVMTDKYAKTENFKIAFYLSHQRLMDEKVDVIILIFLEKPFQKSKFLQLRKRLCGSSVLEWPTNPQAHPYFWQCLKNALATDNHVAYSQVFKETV
human TLR8, sequence (Q9NR97 27-1041): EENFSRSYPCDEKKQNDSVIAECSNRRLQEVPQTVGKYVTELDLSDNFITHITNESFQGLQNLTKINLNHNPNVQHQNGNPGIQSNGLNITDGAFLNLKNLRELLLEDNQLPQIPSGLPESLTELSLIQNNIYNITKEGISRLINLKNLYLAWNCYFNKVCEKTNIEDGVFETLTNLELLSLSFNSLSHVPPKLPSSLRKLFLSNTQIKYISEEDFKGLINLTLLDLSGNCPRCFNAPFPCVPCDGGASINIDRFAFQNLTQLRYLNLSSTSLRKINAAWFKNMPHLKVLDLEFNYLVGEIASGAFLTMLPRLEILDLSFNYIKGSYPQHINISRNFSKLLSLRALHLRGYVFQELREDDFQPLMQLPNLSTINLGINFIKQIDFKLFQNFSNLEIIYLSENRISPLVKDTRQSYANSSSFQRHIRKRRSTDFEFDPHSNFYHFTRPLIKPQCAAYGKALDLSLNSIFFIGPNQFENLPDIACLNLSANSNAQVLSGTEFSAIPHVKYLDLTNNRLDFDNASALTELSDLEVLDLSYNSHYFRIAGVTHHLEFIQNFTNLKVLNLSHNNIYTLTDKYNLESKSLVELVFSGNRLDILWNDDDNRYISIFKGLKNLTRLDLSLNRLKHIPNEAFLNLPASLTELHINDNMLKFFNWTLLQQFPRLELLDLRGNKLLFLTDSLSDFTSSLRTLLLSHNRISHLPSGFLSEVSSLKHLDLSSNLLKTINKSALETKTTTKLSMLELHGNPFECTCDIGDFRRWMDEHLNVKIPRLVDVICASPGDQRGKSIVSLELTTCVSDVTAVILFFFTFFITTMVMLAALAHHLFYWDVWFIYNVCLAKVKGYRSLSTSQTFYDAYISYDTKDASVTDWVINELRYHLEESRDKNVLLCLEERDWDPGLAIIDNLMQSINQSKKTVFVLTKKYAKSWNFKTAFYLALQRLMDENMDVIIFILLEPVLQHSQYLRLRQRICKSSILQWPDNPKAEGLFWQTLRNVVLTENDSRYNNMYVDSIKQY

IC50 (human TLR7) [nM]	IC50 (human TLR9; [1]) [nM]	IC50 (human TLR8; [2]) [nM]	IC50 (human TLR9) [nM]	IC50 (human TLR8) [nM]	Compound
76	5350	54	–	–	COc1ccc(-c2[nH]c3ccc(C(=O)N4CC5CN(C(=O)CN(C)C)CC5C4)cc3c2C(C)C)cc1OC (centres unmarked) [Example 9, 1-(5-(2-(3,4-dimethoxyphenyl)-3-isopropyl-1H-indole-5-carbonyl)hexahydropyrrolo[3,4-c]pyrrol-2(1H)-yl)-2-(dimethylamino)ethan-1-one]
515	21900	446	–	–	CCc1c(-c2ccc(OC)c(OC)c2)[nH]c2ccc(C(=O)N3CC4CN(CC(=O)NC)CC4C3)cc12 (centres unmarked) [Example 82, 2-(5-(2-(3,4-dimethoxyphenyl)-3-ethyl-1H-indole-5-carbonyl)hexahydropyrrolo[3,4-c]pyrrol-2(1H)-yl)-N-methylacetamide]
52	1170	64	–	–	Cc1cc(-c2[nH]c3ccc(C(C)(C)C(=O)N[C@H]4CCNC4)cc3c2C(C)C)ccn1 [Example 138, (S)-2-(3-isopropyl-2-(2-methylpyridin-4-yl)-1H-indol-5-yl)-2-methyl-N-(pyrrolidin-3-yl)propanamide]
803	1400	1080	–	–	Cc1cc(-c2[nH]c3ccc(C(C)C(=O)NC4CCCC(N)C4)cc3c2C(C)C)ccn1 (centres unmarked) [Example 218, N-(3-aminocyclohexyl)-2-(3-isopropyl-2-(2-methylpyridin-4-yl)-1H-indol-5-yl)propanamide]
152	–	–	3890	106	Cc1cc(-c2[nH]c3ccc(C(C)C(=O)NC4CCN(C(C)C)CC4)cc3c2C(C)C)ccn1 (centres unmarked) [Example 194, 2-(3-isopropyl-2-(2-methylpyridin-4-yl)-1H-indol-5-yl)-N-(1-isopropylpiperidin-4-yl)propanamide]
1770	> 50000	412	–	–	CCc1c(-c2ccc(OC)c(OC)c2)[nH]c2ccc(C(=O)NC(CO)CO)cc12 [Example 67, N-(1,3-dihydroxypropan-2-yl)-2-(3,4-dimethoxyphenyl)-3-ethyl-1H-indole-5-carboxamide]
42	1740	31	–	–	Cc1cc(-c2[nH]c3ccc(C(C)(C)C(=O)N(C)C4CCCNC4)cc3c2C(C)C)ccn1 (centres unmarked) [Example 161, 2-(3-isopropyl-2-(2-methylpyridin-4-yl)-1H-indol-5-yl)-N,2-dimethyl-N-(piperidin-3-yl)propanamide]
3940	> 50000	1170	–	–	CCc1c(-c2ccc(OC)c(OC)c2)[nH]c2ccc(C(=O)N3CCc4ccccc43)cc12 [Example 66, (2-(3,4-dimethoxyphenyl)-3-ethyl-1H-indol-5-yl)(indolin-1-yl)methanone]
139	855	18	–	–	Cc1cc(-c2[nH]c3ccc(C(C)(C)C(=O)NCC4CCCCN4)cc3c2C(C)C)ccn1 (centres unmarked) [Example 159, 2-(3-isopropyl-2-(2-methylpyridin-4-yl)-1H-indol-5-yl)-2-methyl-N-(piperidin-2-ylmethyl)propanamide]
71	11900	554	–	–	Cc1cc(-c2[nH]c3ccc(C(C)(C)C(=O)N4CC5CNC5C4)cc3c2C(C)C)ccn1 (centres unmarked) [Example 185, 1-(3,6-diazabicyclo[3.2.0]heptan-3-yl)-2-(3-isopropyl-2-(2-methylpyridin-4-yl)-1H-indol-5-yl)-2-methylpropan-1-one]
150	2790	–	–	–	CCc1c(-c2ccc(OC)c(OC)c2)[nH]c2ccc(C(=O)N[C@H]3CC[C@H](N)CC3)cc12 [Example 47, N-((1r,4r)-4-aminocyclohexyl)-2-(3,4-dimethoxyphenyl)-3-ethyl-1H-indole-5-carboxamide]
104	1390	–	–	–	CCc1c(-c2ccc(OC)c(OC)c2)[nH]c2ccc(C(=O)NC3CCC(N(C)C)CC3)cc12 (centres unmarked) [Example 19, 2-(3,4-dimethoxyphenyl)-N-(4-(dimethylamino)cyclohexyl)-3-ethyl-1H-indole-5-carboxamide]
194	–	110	–	–	CCc1c(-c2ccc(OC)c(OC)c2)[nH]c2ccc(C(=O)N3CCN(c4cnccn4)CC3)cc12 [Example 58, (2-(3,4-dimethoxyphenyl)-3-ethyl-1H-indol-5-yl)(4-(pyrazin-2-yl)piperazin-1-yl)methanone]
–	2940	0.7	–	–	CCCN1CCC(N(C(=O)c2ccc3[nH]c(-c4cn(C)c(=O)c(Cl)c4C)c(C(C)C)c3c2)C2CC2)CC1 [Example 221, 2-(5-chloro-1,4-dimethyl-6-oxo-1,6-dihydropyridin-3-yl)-N-cyclopropyl-3-isopropyl-N-(1-propylpiperidin-4-yl)-1H-indole-5-carboxamide]
144	2410	–	–	–	CCc1c(-c2ccc(OC)c(OC)c2)[nH]c2ccc(C(=O)NCCN3CCCCC3)cc12 [Example 49, 2-(3,4-dimethoxyphenyl)-3-ethyl-N-(2-(piperidin-1-yl)ethyl)-1H-indole-5-carboxamide]
705	> 50000	–	–	–	CCc1c(-c2ccc(OC)c(OC)c2)[nH]c2ccc(C(=O)NCCc3cccnc3)cc12 [Example 51, 2-(3,4-dimethoxyphenyl)-3-ethyl-N-(2-(pyridin-3-yl)ethyl)-1H-indole-5-carboxamide]
296	4930	–	–	–	CCc1c(-c2ccc(OC)c(OC)c2)[nH]c2ccc(C(=O)N3CCC(N(C)C)CC3)cc12 [Example 31, (2-(3,4-dimethoxyphenyl)-3-ethyl-1H-indol-5-yl)(4-(dimethylamino)piperidin-1-yl)methanone]
947	–	964	–	–	Cc1cc(-c2[nH]c3ccc(C(C)C(=O)NCCC(C)(C)O)cc3c2C(C)C)ccn1 (centres unmarked) [Example 132, N-(3-hydroxy-3-methylbutyl)-2-(3-isopropyl-2-(2-methylpyridin-4-yl)-1H-indol-5-yl)propanamide]
141	–	2.1	–	–	Cc1c(-c2[nH]c3ccc(C(=O)N4CCN(C)CC4)cc3c2C(C)C)cn(C)c(=O)c1Cl [Example 220, 3-chloro-5-(3-isopropyl-5-(4-methylpiperazine-1-carbonyl)-1H-indol-2-yl)-1,4-dimethylpyridin-2(1H)-one]
58	–	256	–	–	Cc1cc(-c2[nH]c3ccc(C(C)(C)C(=O)N4CCCC(CCN)C4)cc3c2C(C)C)ccn1 (centres unmarked) [Example 154, 1-(3-(2-aminoethyl)piperidin-1-yl)-2-(3-isopropyl-2-(2-methylpyridin-4-yl)-1H-indol-5-yl)-2-methylpropan-1-one]
382	19900	–	–	–	CCc1c(-c2ccc(OC)c(OC)c2)[nH]c2ccc(C(=O)NCCc3ccncc3)cc12 [Example 50, 2-(3,4-dimethoxyphenyl)-3-ethyl-N-(2-(pyridin-4-yl)ethyl)-1H-indole-5-carboxamide]
1140	> 50000	–	–	–	CCc1c(-c2ccc(OC)c(OC)c2)[nH]c2ccc(C(=O)N3CCN(c4ccccn4)CC3)cc12 [Example 59, (2-(3,4-dimethoxyphenyl)-3-ethyl-1H-indol-5-yl)(4-(pyridin-2-yl)piperazin-1-yl)methanone]
138	1930	–	–	–	CCc1c(-c2ccc(OC)c(OC)c2)[nH]c2ccc(C(=O)N3CCN(C4CCN(C)CC4)CC3)cc12 [Example 36, (2-(3,4-dimethoxyphenyl)-3-ethyl-1H-indol-5-yl)(4-(1-methylpiperidin-4-yl)piperazin-1-yl)methanone]
